US8163770B2, “Benzoxathiin derivative” (MSD. K. K., priority 2005, dated 2012)
Where two headings read alike, the source gives them in different places.

Legend:
[1] = Test for brain/cerebrospinal fluid transition; type: in vivo; conditions: SD male rat, 2 hours after oral administration (10 mg/kg)
Procedure: The test compound was orally or intravenously administered to an SD male rat (7 to 10-week age, 200 to 400 g), and under anesthesia with ether for a predetermined period of time, the whole blood was collected from it through the abdominal aorta thereof using a heparin-processed syringe. Next, the head skin was cut, and a dental 30 G needle was stuck into the cervical spine to run through the subarachnoid cavity. Via a tube connected to the dental 30 G needle, from 50 to 100 μL of the cerebrospinal fluid was collected in a 1-mL syringe, and then the brain was taken out. The blood sample was centrifuged (4° C., 6000 revolutions, 10 minutes), and the resulting plasma was stirred with ethanol (containing an internal standard substance) in an amount of three times thereof added to it. The brain sample was homogenized with 2 mL of water added thereto; and a part of it was taken out and stirred with ethanol (containing an internal standard substance) in an amount of three times thereof added to it. The cerebrospinal fluid was stirred with ethanol (containing an internal standard substance) in an amount of three times thereof added to it. The above samples were left at −20° C. for 20 minutes, then centrifuged (4° C., 12,000 g, 10 minutes), and the supernatant was analyzed through LC/MS/MS. According to a relative calibration curve method, the compound concentration in the plasma, in the brain and in the cerebrospinal fluid was determined.

histamine-H3 receptor = target: T1, histamine-H3 receptor (Rattus norvegicus, UniProt Q9QYN8); test: Test for antagonistic effect to water-drinking action induced by histamine-H3 receptor selective agonist, R-α-methylhistamine; type: in vivo; conditions: 10 mg/kg oral, 2 hours before R-α-methylhistamine, water drunk for 1 hour
T1 construct: from tissue; host or cells: living male rat
T1 sequence (Q9QYN8 whole entry): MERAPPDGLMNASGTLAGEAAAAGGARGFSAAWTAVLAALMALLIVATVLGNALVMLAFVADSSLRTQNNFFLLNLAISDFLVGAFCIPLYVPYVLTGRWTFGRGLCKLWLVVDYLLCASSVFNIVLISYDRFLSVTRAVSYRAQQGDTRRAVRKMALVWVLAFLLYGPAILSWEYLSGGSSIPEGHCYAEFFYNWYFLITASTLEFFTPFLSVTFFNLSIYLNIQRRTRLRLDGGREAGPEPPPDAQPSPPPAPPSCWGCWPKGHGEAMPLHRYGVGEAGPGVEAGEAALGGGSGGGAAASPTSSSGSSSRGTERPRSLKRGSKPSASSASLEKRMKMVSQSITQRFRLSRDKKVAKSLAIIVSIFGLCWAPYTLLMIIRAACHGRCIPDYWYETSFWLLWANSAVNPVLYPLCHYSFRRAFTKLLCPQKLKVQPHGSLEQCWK
Procedure: Under anesthesia with ketamine xylazine (74 and 11 mg/kg intraabdominal single administration), a brain stereotaxic device was set in the third ventricle of a male DS rat (7 to 10-week age, 200 to 300 g), and a chronic guide cannula (26 gauge, length 11 mm) was inserted into it and fixed with a dental resin. The position of the tip of the guide cannula is at 2.2 mm after the bregma on the midline, and at a depth of 8 mm from the surface of the skull. After a restoration term of about 1 week, R-α-methylhistamine (0.3 μg/1 μL/head, 30% propylene glycol liquid) was administered into the third ventricle. The test compound suspended in an aqueous 0.5% methyl cellulose solution was orally administered to the rat before 2 hours before the R-α-methylhistamine administration; and after the R-α-methylhistamine administration, the amount of water drunk by the rat for 1 hour was measured.

C[C@H]1[C@H](c2ccc(OCCCN3CCCC3)cc2)Oc2ccccc2S1(=O)=O (single isomer, unassigned) [(2S*,3S*)-2,3-dihydro-3-methyl-2-[4-[3-(1-pyrrolidinyl)propoxy]phenyl]-1,4-benzoxathiin-4,4-dioxide]
concentration in the brain [1]: 6.96 nmol/g
concentration at 2 h ([1]; cerebrospinal fluid, read-out: concentration in the cerebrospinal fluid): 174 nM
concentration at 2 h ([1]; plasma, read-out: concentration in the plasma): 980 nM
inhibition of the increase in the water drinking induced by R-α-methylhistamine in the third ventricle (histamine-H3 receptor): significantly inhibited
